Structures are written as SMILES. Starred links: 1 amine or outer side, 2 acyl side, 3 side chain; linkers in the order of their positions; H or OH if unused. Positions of bridges follow the written chain, without caps; N, C: chain ends. Non-standard residues stand in square brackets, D forms with d. Residues, ends and D or L forms follow the SMILES beside them. Groups on a side chain read outwards from the residue. *: point of attachment. Cholyl = C[C@H](CCC(=O)*)[C@H]1CC[C@H]2[C@@H]3[C@H](O)C[C@@H]4C[C@H](O)CC[C@]4(C)[C@H]3C[C@H](O)[C@]12C; Dehydrocholoyl = C[C@H](CCC(=O)*)[C@H]1CC[C@H]2[C@@H]3C(=O)C[C@@H]4CC(=O)CC[C@]4(C)[C@H]3CC(=O)[C@]12C; X22 = O=C(Cn1cc(C[C@H](N[*:1])C(=O)[*:2])c2ccccc21)NCCC1CC1; X11 = O=C(Cn1cc(C[C@H](N[*:1])C(=O)[*:2])c2ccccc21)NCCCCCO; X32 = CCCNC(=O)Cn1cc(C[C@H](N[*:1])C(=O)[*:2])c2ccccc21; X1 = NCCNC(=O)Cn1cc(C[C@H](N[*:1])C(=O)[*:2])c2ccccc21; Pro(4R-Me) = C[C@H]1CN[C@H](C(=O)O)C1; Hyp = O=C(O)[C@@H]1C[C@@H](O)CN1; NMeNle = CCCC[C@H](NC)C(=O)O; NMeA = CN[C@@H](C)C(=O)O; Dab = NCC[C@H](N)C(=O)O; Dap = NC[C@H](N)C(=O)O

The target in the assay is T1, PD-1/PD-L1 (Homo sapiens, UniProt Q9NZQ7).
T1 construct: TVMV protease site (C); made in house; host or cells: HEK293T cells
Nature of the assay: PD-1/PD-L1 Homogenous Time-Resolved Fluorescence (HTRF) binding assay. Conditions: PD-L1-His 10 nM, PD-1-Ig 20 nM; read-out: HTRF IC50. In outline:
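Inhibitors pre-incubated 15 min with PD-L1-His (10 nM final) in dPBS, 0.1% BSA, 0.05% Tween-20, then 15 min with PD-1-Ig (20 nM final). Eu-cryptate anti-Ig (1 nM) and APC anti-His (20 nM) added, 30 min equilibration; HTRF 665/620 nm ratio. Human ECD proteins from HEK293T.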

T1 sequence (Q9NZQ7 18-239): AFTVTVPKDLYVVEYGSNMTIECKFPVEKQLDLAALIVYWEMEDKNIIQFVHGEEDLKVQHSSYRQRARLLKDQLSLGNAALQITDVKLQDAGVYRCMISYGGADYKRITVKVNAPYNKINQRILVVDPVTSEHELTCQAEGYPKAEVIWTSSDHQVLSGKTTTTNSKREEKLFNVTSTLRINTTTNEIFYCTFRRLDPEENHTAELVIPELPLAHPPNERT

Take `CCCC[C@H]1C(=O)N(C)[C@@H](CCCC)C(=O)N[C@@H](CC(C)C)C(=O)N[C@H](C(=O)NCC(N)=O)CSCC(=O)N[C@@H](Cc2ccc(O)cc2)C(=O)N(C)[C@@H](C)C(=O)N[C@@H](CC(N)=O)C(=O)N2CCC[C@H]2C(=O)N[C@@H](CNC(=O)CC[C@@H](C)[C@H]2CC[C@H]3[C@@H]4C(=O)C[C@@H]5CC(=O)CC[C@]5(C)[C@H]4CC(=O)[C@]23C)C(=O)N[C@@H](CC(C)C)C(=O)N2C[C@H](O)C[C@H]2C(=O)N[C@@H](Cc2c[nH]c3ccccc23)C(=O)N[C@@H](CCNC(=O)CC[C@@H](C)[C@H]2CC[C@H]3[C@@H]4C(=O)C[C@@H]5CC(=O)CC[C@]5(C)[C@H]4CC(=O)[C@]23C)C(=O)N[C@@H](Cc2cn(CC(=O)NCCN)c3ccccc23)C(=O)N1C` [Example 2019] ({CH2CO}-Y[NMeA]NP[Dap](Dehydrocholoyl)L[Hyp]W[Dab](Dehydrocholoyl)[X1][NMeNle][NMeNle]LCG-NH2; thioether N-14): the IC50 was found to be 0.019 µM.
Turning to `CCCC[C@H]1C(=O)N(C)[C@@H](CCCC)C(=O)N[C@@H](CC(C)C)C(=O)N[C@H](C(=O)NCC(N)=O)CSCC(=O)N[C@@H](Cc2ccc(O)cc2)C(=O)N(C)[C@@H](C)C(=O)N[C@@H](CC(N)=O)C(=O)N2CCC[C@H]2C(=O)N[C@@H](CNC(=O)CC[C@@H](C)[C@H]2CC[C@H]3[C@@H]4[C@H](O)C[C@@H]5C[C@H](O)CC[C@]5(C)[C@H]4C[C@H](O)[C@]23C)C(=O)N[C@@H](CC(C)C)C(=O)N2C[C@H](O)C[C@H]2C(=O)N[C@@H](Cc2c[nH]c3ccccc23)C(=O)N[C@@H](CCNC(=O)CC[C@@H](C)[C@H]2CC[C@H]3[C@@H]4[C@H](O)C[C@@H]5C[C@H](O)CC[C@]5(C)[C@H]4C[C@H](O)[C@]23C)C(=O)N[C@@H](Cc2cn(CC(=O)NCCN)c3ccccc23)C(=O)N1C` [Example 2021] ({CH2CO}-Y[NMeA]NP[Dap](Cholyl)L[Hyp]W[Dab](Cholyl)[X1][NMeNle][NMeNle]LCG-NH2; thioether N-14), the IC50 came to 0.18 µM.
Consider `CCCC[C@H]1C(=O)N(C)[C@@H](CCCC)C(=O)N[C@@H](CC(C)C)C(=O)N[C@H](C(=O)NCC(N)=O)CSCC(=O)N[C@@H](Cc2ccc(O)cc2)C(=O)N(C)[C@@H](C)C(=O)N[C@@H](CC(N)=O)C(=O)N2CCC[C@H]2C(=O)N[C@@H](CNC(=O)CC[C@@H](C)[C@H]2CC[C@H]3[C@@H]4[C@H](O)C[C@@H]5C[C@H](O)CC[C@]5(C)[C@H]4C[C@H](O)[C@]23C)C(=O)N[C@@H](CC(C)C)C(=O)N2C[C@H](O)C[C@H]2C(=O)N[C@@H](Cc2c[nH]c3ccccc23)C(=O)N[C@@H](CCNC(=O)CC[C@@H](C)[C@H]2CC[C@H]3[C@@H]4[C@H](O)C[C@@H]5C[C@H](O)CC[C@]5(C)[C@H]4C[C@H](O)[C@]23C)C(=O)N[C@@H](Cc2cn(CC(=O)NCCC)c3ccccc23)C(=O)N1C` [Example 2023] ({CH2CO}-Y[NMeA]NP[Dap](Cholyl)L[Hyp]W[Dab](Cholyl)[X32][NMeNle][NMeNle]LCG-NH2; thioether N-14), for which the IC50 stood at 0.66 µM.
The same measure for `CCCC[C@H]1C(=O)N(C)[C@@H](CCCC)C(=O)N[C@@H](CC(C)C)C(=O)N[C@H](C(=O)NCC(N)=O)CSCC(=O)N[C@@H](Cc2ccc(O)cc2)C(=O)N(C)[C@@H](C)C(=O)N[C@@H](CC(N)=O)C(=O)N2CCC[C@H]2C(=O)N[C@@H](CNC(=O)CNC(=O)CC[C@@H](C)[C@H]2CC[C@H]3[C@@H]4[C@H](O)C[C@@H]5C[C@H](O)CC[C@]5(C)[C@H]4C[C@H](O)[C@]23C)C(=O)N[C@@H](CC(C)C)C(=O)N2C[C@H](C)C[C@H]2C(=O)N[C@@H](Cc2c[nH]c3ccccc23)C(=O)N[C@@H](CCNC(=O)CNC(=O)CC[C@@H](C)[C@H]2CC[C@H]3[C@@H]4[C@H](O)C[C@@H]5C[C@H](O)CC[C@]5(C)[C@H]4C[C@H](O)[C@]23C)C(=O)N[C@@H](Cc2cn(CC(=O)NCCN)c3ccccc23)C(=O)N1C` [Example 2026] ({CH2CO}-Y[NMeA]NP[Dap]([Gly-Cholyl])L[Pro(4R-Me)]W[Dab]([Gly-Cholyl])[X1][NMeNle][NMeNle]LCG-NH2; thioether N-14): 0.4 µM; for `CCCC[C@H]1C(=O)N(C)[C@@H](CCCC)C(=O)N[C@@H](CC(C)C)C(=O)N[C@H](C(=O)NCC(N)=O)CSCC(=O)N[C@@H](Cc2ccc(O)cc2)C(=O)N(C)[C@@H](C)C(=O)N[C@@H](CC(N)=O)C(=O)N2CCC[C@H]2C(=O)N[C@@H](CNC(=O)CNC(=O)CC[C@@H](C)[C@H]2CC[C@H]3[C@@H]4[C@H](O)C[C@@H]5C[C@H](O)CC[C@]5(C)[C@H]4C[C@H](O)[C@]23C)C(=O)N[C@@H](CC(C)C)C(=O)N2C[C@H](C)C[C@H]2C(=O)N[C@@H](Cc2c[nH]c3ccccc23)C(=O)N[C@@H](CCNC(=O)CNC(=O)CC[C@@H](C)[C@H]2CC[C@H]3[C@@H]4[C@H](O)C[C@@H]5C[C@H](O)CC[C@]5(C)[C@H]4C[C@H](O)[C@]23C)C(=O)N[C@@H](Cc2cn(CC(=O)NCCC)c3ccccc23)C(=O)N1C` [Example 2027] ({CH2CO}-Y[NMeA]NP[Dap]([Gly-Cholyl])L[Pro(4R-Me)]W[Dab]([Gly-Cholyl])[X32][NMeNle][NMeNle]LCG-NH2; thioether N-14): 0.99 µM; for `CCCC[C@H]1C(=O)N(C)[C@@H](CCCC)C(=O)N[C@@H](CC(C)C)C(=O)N[C@H](C(=O)NCC(N)=O)CSCC(=O)N[C@@H](Cc2ccc(O)cc2)C(=O)N(C)[C@@H](C)C(=O)N[C@@H](CC(N)=O)C(=O)N2CCC[C@H]2C(=O)N[C@@H](CNC(=O)CNC(=O)CC[C@@H](C)[C@H]2CC[C@H]3[C@@H]4[C@H](O)C[C@@H]5C[C@H](O)CC[C@]5(C)[C@H]4C[C@H](O)[C@]23C)C(=O)N[C@@H](CC(C)C)C(=O)N2C[C@H](C)C[C@H]2C(=O)N[C@@H](Cc2c[nH]c3ccccc23)C(=O)N[C@@H](CCNC(=O)CNC(=O)CC[C@@H](C)[C@H]2CC[C@H]3[C@@H]4[C@H](O)C[C@@H]5C[C@H](O)CC[C@]5(C)[C@H]4C[C@H](O)[C@]23C)C(=O)N[C@@H](Cc2cn(CC(=O)NCCC3CC3)c3ccccc23)C(=O)N1C` [Example 2028] ({CH2CO}-Y[NMeA]NP[Dap]([Gly-Cholyl])L[Pro(4R-Me)]W[Dab]([Gly-Cholyl])[X22][NMeNle][NMeNle]LCG-NH2; thioether N-14): 0.66 µM.
For `CCCC[C@H]1C(=O)N(C)[C@@H](CCCC)C(=O)N[C@@H](CC(C)C)C(=O)N[C@H](C(=O)NCC(N)=O)CSCC(=O)N[C@@H](Cc2ccc(O)cc2)C(=O)N(C)[C@@H](C)C(=O)N[C@@H](CC(N)=O)C(=O)N2CCC[C@H]2C(=O)N[C@@H](CNC(=O)CNC(=O)CC[C@@H](C)[C@H]2CC[C@H]3[C@@H]4[C@H](O)C[C@@H]5C[C@H](O)CC[C@]5(C)[C@H]4C[C@H](O)[C@]23C)C(=O)N[C@@H](CC(C)C)C(=O)N2C[C@H](C)C[C@H]2C(=O)N[C@@H](Cc2c[nH]c3ccccc23)C(=O)N[C@@H](CCNC(=O)CNC(=O)CC[C@@H](C)[C@H]2CC[C@H]3[C@@H]4[C@H](O)C[C@@H]5C[C@H](O)CC[C@]5(C)[C@H]4C[C@H](O)[C@]23C)C(=O)N[C@@H](Cc2cn(CC(=O)NCCCCCO)c3ccccc23)C(=O)N1C` [Example 2029] ({CH2CO}-Y[NMeA]NP[Dap]([Gly-Cholyl])L[Pro(4R-Me)]W[Dab]([Gly-Cholyl])[X11][NMeNle][NMeNle]LCG-NH2; thioether N-14), the IC50 was 0.67 µM.
